In ChEMBL document CHEMBL5291721, “A preclinical secondary pharmacology resource illuminates target-adverse drug reaction associations of marketed drugs” (Nat Commun, 2023) one finds AC50 data, which are given here for twelve compounds.

Structures are written as SMILES. “And” between values parts separate entries of the source, which are not always exact repeats. Identical values can stand only once.

The target of experiment [1] is D(1A) dopamine receptor (Homo sapiens, UniProt P21728).
For experiment [2], the target named is T1, Muscarinic acetylcholine receptor M1 (Homo sapiens, UniProt P11229).
T1 sequence (P11229 whole entry): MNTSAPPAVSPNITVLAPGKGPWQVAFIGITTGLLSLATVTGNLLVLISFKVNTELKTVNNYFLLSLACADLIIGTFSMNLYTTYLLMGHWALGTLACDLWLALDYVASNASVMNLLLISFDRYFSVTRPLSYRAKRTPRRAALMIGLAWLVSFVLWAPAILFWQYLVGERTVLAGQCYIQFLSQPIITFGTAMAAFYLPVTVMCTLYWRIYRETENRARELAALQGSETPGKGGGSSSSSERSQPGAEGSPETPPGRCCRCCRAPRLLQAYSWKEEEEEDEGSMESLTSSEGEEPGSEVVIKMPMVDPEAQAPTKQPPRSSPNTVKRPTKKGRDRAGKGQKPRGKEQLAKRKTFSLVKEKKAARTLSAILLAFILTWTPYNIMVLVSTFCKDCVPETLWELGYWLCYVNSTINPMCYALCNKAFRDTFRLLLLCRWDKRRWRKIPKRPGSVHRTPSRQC
The format is functional.

Experiment [3] has as its target T2, Alpha-2B adrenergic receptor (Homo sapiens, UniProt P18089).
T2 sequence (P18089 whole entry): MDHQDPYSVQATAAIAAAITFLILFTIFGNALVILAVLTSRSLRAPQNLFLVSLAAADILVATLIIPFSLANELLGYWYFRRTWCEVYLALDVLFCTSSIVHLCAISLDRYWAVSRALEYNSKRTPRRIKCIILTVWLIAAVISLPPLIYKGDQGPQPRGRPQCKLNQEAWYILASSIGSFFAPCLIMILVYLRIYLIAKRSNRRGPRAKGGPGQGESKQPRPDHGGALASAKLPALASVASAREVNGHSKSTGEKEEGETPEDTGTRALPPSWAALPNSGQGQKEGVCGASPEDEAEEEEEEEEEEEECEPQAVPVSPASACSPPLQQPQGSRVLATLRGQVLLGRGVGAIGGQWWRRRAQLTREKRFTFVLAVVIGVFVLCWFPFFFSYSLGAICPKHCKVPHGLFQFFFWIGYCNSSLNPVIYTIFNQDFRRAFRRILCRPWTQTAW

Experiment [4] has as its target T3, Peroxisome proliferator-activated receptor gamma (Homo sapiens, UniProt P37231).
T3 sequence (P37231 whole entry): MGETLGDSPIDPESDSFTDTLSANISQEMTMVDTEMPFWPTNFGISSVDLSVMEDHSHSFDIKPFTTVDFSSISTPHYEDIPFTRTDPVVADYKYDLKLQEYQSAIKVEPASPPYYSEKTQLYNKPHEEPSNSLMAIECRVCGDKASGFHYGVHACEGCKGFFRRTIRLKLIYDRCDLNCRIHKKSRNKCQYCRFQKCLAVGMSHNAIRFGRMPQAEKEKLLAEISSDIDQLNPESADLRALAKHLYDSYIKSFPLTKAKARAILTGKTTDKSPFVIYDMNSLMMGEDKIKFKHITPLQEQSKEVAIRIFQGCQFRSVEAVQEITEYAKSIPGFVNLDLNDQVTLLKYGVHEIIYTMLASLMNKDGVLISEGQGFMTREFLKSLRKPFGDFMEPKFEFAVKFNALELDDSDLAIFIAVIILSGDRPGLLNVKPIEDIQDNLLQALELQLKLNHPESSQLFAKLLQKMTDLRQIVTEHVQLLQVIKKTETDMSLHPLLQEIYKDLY
The format is functional.

Experiment [5] deals with Sodium channel protein type 5 subunit alpha (Homo sapiens, UniProt Q14524). The format is functional, cell-based.
For experiment [6], the target named is T4, B1 bradykinin receptor (Homo sapiens, UniProt P46663).
T4 sequence (P46663 whole entry): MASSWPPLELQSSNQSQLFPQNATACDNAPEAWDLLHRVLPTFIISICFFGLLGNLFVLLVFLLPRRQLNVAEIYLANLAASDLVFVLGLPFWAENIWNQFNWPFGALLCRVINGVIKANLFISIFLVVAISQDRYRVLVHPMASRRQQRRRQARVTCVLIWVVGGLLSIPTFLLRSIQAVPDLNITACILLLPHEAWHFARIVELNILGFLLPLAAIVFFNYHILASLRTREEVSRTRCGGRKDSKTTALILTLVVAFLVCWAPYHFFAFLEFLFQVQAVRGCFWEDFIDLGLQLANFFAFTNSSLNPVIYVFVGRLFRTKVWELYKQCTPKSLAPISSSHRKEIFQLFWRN

Experiment [7] has as its target T5, Muscarinic acetylcholine receptor M2 (Homo sapiens, UniProt P08172).
T5 sequence (P08172 whole entry): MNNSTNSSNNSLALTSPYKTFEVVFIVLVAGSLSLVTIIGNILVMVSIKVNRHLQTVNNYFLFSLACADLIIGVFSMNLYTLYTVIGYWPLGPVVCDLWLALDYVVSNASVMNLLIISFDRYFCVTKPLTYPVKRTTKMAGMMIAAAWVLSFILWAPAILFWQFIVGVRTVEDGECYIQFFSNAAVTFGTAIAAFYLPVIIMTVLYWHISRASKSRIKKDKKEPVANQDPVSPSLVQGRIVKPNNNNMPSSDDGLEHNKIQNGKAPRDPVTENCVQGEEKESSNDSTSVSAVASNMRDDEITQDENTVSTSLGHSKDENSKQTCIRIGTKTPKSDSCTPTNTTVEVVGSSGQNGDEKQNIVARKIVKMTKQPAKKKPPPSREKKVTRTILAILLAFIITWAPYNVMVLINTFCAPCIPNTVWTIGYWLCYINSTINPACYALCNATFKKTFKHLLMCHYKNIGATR

Experiment [8] deals with Histamine H2 receptor (Homo sapiens, UniProt P25021).
Also: assay procedure not described here.

D(1A) dopamine receptor, sequence (P21728 whole entry): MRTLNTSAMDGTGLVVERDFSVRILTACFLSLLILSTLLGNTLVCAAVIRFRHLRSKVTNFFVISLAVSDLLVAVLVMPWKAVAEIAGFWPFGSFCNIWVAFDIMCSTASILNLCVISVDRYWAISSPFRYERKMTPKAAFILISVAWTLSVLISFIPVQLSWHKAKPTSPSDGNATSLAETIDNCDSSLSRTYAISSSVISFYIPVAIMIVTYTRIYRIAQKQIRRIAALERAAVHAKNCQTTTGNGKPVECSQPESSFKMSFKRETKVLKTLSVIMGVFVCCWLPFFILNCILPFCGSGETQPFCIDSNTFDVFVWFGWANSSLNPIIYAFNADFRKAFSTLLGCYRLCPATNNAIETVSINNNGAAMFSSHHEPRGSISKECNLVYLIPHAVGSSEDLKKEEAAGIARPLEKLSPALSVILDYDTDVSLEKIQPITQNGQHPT
Sodium channel protein type 5 subunit alpha, sequence (Q14524 whole entry): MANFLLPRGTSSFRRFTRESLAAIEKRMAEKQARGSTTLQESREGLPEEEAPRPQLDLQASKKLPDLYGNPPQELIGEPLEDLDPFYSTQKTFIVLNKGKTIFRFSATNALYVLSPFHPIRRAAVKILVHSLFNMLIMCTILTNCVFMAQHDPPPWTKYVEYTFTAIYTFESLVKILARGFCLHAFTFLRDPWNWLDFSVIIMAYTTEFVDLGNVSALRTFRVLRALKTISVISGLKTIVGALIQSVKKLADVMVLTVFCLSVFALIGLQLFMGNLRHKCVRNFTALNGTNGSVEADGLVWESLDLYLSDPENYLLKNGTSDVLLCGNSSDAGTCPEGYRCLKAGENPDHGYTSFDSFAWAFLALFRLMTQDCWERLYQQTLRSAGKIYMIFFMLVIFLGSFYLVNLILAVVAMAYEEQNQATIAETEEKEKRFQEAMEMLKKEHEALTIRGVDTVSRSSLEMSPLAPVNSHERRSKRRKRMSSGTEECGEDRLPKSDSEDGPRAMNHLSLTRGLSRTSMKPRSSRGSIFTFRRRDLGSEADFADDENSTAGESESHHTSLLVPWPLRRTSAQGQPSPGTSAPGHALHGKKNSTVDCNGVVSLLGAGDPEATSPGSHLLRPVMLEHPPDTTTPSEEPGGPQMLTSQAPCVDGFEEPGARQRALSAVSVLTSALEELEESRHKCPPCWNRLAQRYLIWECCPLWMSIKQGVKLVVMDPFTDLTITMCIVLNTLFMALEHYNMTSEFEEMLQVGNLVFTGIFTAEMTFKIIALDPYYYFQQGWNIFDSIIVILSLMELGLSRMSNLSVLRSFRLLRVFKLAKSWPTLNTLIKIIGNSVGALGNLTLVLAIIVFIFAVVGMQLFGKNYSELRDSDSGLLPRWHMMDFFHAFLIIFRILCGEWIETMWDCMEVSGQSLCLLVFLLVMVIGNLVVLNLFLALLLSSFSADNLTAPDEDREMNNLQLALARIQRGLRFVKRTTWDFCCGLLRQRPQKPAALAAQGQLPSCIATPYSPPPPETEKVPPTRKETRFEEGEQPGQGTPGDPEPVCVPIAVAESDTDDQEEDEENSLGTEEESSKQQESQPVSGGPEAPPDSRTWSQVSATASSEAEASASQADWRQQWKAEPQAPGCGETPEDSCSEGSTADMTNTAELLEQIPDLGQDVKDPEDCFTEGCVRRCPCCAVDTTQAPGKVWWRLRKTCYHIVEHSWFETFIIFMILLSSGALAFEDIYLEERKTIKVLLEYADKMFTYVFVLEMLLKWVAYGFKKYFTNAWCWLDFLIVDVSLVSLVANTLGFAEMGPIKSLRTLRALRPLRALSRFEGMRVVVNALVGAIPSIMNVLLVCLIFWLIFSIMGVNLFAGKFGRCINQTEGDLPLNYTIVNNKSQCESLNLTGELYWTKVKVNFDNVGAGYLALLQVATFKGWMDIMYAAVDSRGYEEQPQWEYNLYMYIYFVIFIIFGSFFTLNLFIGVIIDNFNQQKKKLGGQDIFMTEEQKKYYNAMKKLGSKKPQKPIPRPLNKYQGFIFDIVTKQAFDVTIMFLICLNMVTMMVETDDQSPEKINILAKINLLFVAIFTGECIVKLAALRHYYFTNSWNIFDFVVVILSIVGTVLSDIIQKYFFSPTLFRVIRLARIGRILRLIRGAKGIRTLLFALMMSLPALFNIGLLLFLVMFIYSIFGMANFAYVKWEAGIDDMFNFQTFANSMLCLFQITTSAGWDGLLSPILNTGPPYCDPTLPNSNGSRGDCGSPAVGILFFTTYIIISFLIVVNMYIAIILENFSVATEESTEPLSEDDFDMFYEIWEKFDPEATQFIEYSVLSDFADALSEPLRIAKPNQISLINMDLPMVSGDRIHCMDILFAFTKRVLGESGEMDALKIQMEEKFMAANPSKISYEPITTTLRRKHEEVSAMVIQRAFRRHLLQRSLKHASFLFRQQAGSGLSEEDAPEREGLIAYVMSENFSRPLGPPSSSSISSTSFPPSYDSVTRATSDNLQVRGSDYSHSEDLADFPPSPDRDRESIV
Histamine H2 receptor, sequence (P25021 whole entry): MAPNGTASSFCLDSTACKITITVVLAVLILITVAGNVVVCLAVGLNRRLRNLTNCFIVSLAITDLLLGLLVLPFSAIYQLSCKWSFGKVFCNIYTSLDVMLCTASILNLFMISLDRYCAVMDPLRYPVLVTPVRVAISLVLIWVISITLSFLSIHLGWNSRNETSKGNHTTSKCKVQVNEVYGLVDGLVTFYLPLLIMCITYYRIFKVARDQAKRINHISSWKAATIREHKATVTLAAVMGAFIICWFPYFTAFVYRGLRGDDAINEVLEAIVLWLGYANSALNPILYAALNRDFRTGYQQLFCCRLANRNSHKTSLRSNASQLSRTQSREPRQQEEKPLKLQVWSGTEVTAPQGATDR

Turning to `O=C(O)CO` [GLYCOLIC ACID], in experiment [1], the concentration at half-maximal activity (AC50) was > 30 µM.
Turning to `OC[C@H]1O[C@@](CO)(O[C@H]2O[C@H](CO)[C@@H](O)[C@H](O)[C@H]2O)[C@@H](O)[C@@H]1O` [SUCROSE], the AC50 in experiment [2], in experiment [3], in experiment [1] and in experiment [4] was > 30 µM throughout.
`N[C@@H](CC(=O)N1CCn2c(nnc2C(F)(F)F)C1)Cc1cc(F)c(F)cc1F` [SITAGLIPTIN]: the half-maximal activity concentration (AC50) was > 30 µM in experiment [2]; > 150 µM in experiment [5]; > 10 µM in experiment [6]; > 10 µM in experiment [7]; > 30 µM in experiment [3]; > 30 µM in experiment [4]. Besides, in experiment [8], the AC50 was > 10 µM.
On to `CCOC(=O)c1c(C)cc2c(CO)n[nH]c(=O)c2c1C` [OXAGRELATE], for which, in experiment [1], the AC50 is > 30 µM.
With `FC(F)(F)c1ccc(CNc2ccc(Cc3c[nH]c4ncc(Cl)cc34)cn2)cn1` [PEXIDARTINIB], half-maximal activity in experiment [1] (AC50) was put at 5.53 µM. In other words, the single-digit micromolar range.
The same measure, in the same setting: the same measure for `CC[C@@]1(O)C(=O)OCc2c1cc1n(c2=O)Cc2cc3c([N+](=O)[O-])cccc3nc2-1` [RUBITECAN]: > 30 µM.
For `CN(CC1(C)CCCO1)S(=O)(=O)c1ccc(Cl)c(S(N)(=O)=O)c1` (centres undefined) [MEFRUSIDE], the half-maximal activity concentration (AC50) in experiment [2], in experiment [3] and in experiment [1] was > 30 µM throughout.
On to `C#C[C@]1(O)CC[C@H]2[C@@H]3CCC4=CC(=O)CC[C@@H]4[C@H]3C(=C)C[C@@]21CC` [ETONOGESTREL], for which the AC50 in experiment [2], in experiment [3] and in experiment [1] was > 30 µM throughout.
With `CC(C)(O)CNc1nc(Nc2ccnc(C(F)(F)F)c2)nc(-c2cccc(C(F)(F)F)n2)n1` [ENASIDENIB], the half-maximal activity concentration (AC50) in experiment [1] is > 30 µM.
For the compound `C=CC[C@@H]1/C=C(\C)C[C@H](C)C[C@H](OC)[C@H]2O[C@@](O)(C(=O)C(=O)N3CCCC[C@H]3C(=O)O[C@H](/C(C)=C/[C@@H]3CC[C@@H](O)[C@H](OC)C3)[C@H](C)[C@@H](O)CC1=O)[C@H](C)C[C@@H]2OC` [TACROLIMUS ANHYDROUS], the half-maximal activity concentration (AC50) is 45 µM and > 30 µM in experiment [5]; > 30 µM in experiment [6]; > 10 µM in experiment [7]; > 30 µM in experiment [4]; > 10 µM in experiment [8].
Take `OC[C@@H](O)[C@@H](O)[C@H](O)[C@@H](O)CO` [SORBITOL]: the half-maximal activity concentration (AC50) in experiment [1] was > 30 µM.
Same read-out and setting: the same measure for `CN1C(C(=O)Nc2ccccn2)=C(O)c2ccccc2S1(=O)=O` [PIROXICAM]: > 30 µM.
